The text below walks through data of ChEMBL document CHEMBL1158363, “Circular dichroism studies of type III collagen mimetic peptides with anti- or pro-aggregant activities on human platelets” (2009).

For orientation: inhibition means how much of the control response was suppressed.

For this test, the system named is Platelet. As to the kind of experiment: Inhibition of type III collagen-induced platelet aggregation in human platelet rich plasma at 1 mM. It counts as functional.

Activity calls are given as the source filed them. No cut-off for these calls is given here. Where a SMILES comes first, the peptide text is derived from it. [ ]: non-standard residue; d: D form. Hyp = O=C(O)[C@@H]1C[C@@H](O)CN1

`C[C@H](NC(=O)[C@@H]1C[C@@H](O)CN1C(=O)[C@H](CCC(=O)O)NC(=O)CNC(=O)[C@@H]1C[C@@H](O)CN1C(=O)[C@@H](N)CCCCN)C(=O)N1CCC[C@H]1C(=O)N[C@@H](CCCCN)C(=O)O` (H-K[Hyp]GE[Hyp]APK-OH) displayed an inhibition at 1000 µM of 72.1%.

`NCCCC[C@H](NC(=O)[C@@H]1CCCN1C(=O)CNC(=O)[C@@H]1C[C@@H](O)CN1C(=O)[C@H](CCC(=O)O)NC(=O)CNC(=O)[C@@H]1C[C@@H](O)CN1C(=O)[C@@H](N)CCCCN)C(=O)O` (H-K[Hyp]GE[Hyp]GPK-OH) had an inhibition at 1000 µM of 86.1%.

Regarding `C[C@H](NC(=O)[C@@H]1C[C@@H](O)CN1C(=O)[C@@H](N)CCCCN)C(=O)N[C@@H](CCC(=O)O)C(=O)N1C[C@H](O)C[C@H]1C(=O)N[C@@H](C)C(=O)N1CCC[C@H]1C(=O)N[C@@H](CCCCN)C(=O)O` (H-K[Hyp]AE[Hyp]APK-OH), the inhibition entry is “inactive”.

On to `NCCCC[C@H](NC(=O)[C@H](CCCCN)NC(=O)[C@@H]1C[C@@H](O)CN1C(=O)[C@@H]1C[C@@H](O)CN1)C(=O)N[C@@H](CCC(=O)O)C(=O)N1CCC[C@H]1C(=O)NCC(=O)NCC(=O)O` (H-[Hyp][Hyp]KKEPGG-OH), for which the inhibition result was “inactive”.
